Experimental data from ChEMBL document CHEMBL1142678, “Discovery and structure-activity relationship of quinuclidine benzamides as agonists of alpha7 nicotinic acetylcholine receptors” (J Med Chem, 2005).

target: Neuronal acetylcholine receptor; alpha3/beta4 (Homo sapiens, UniProt P30926+P32297); experiment: Antagonistic activity against Nicotinic acetylcholine receptor alpha3-beta4; assay type: functional
Sequence (P30926 whole entry): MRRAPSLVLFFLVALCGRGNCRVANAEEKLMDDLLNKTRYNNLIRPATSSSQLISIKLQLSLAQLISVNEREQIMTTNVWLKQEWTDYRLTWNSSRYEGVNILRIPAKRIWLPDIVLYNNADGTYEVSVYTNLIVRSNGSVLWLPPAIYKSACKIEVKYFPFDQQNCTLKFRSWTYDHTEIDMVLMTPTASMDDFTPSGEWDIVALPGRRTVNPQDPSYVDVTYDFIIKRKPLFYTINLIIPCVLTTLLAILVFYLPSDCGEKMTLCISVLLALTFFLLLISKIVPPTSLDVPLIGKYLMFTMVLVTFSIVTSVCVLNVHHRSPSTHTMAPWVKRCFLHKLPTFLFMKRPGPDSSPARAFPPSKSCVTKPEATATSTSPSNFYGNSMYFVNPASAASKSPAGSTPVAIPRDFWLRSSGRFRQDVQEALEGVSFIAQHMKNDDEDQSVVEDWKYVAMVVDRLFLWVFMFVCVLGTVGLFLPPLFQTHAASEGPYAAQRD
Sequence (P32297 whole entry): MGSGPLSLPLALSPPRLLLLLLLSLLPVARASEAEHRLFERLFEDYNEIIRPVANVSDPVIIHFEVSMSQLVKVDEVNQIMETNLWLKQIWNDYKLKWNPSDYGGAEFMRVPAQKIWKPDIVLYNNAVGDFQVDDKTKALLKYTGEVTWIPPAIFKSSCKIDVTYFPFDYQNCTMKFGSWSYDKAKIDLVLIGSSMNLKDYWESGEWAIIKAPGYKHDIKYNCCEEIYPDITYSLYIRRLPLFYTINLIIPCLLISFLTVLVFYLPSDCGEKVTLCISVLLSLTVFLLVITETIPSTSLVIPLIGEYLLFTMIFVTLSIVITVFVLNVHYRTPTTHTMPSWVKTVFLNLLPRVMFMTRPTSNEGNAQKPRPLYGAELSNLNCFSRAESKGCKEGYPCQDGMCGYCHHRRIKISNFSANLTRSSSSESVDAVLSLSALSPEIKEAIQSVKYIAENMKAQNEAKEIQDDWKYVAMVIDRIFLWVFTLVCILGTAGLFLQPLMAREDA

SMILES	IC50 [nM]
O=C(N[C@H]1CN2CCC1CC2)c1ccc(Cl)cc1 [listing 1 of 2 here]	≥ 60000

target: T1, Serotonin 3 (5-HT3) receptor (Rattus norvegicus, UniProt P35563+Q9JJ16); experiment: Inhibition of [3H]GR-65630 binding to 5-hydroxytryptamine 3 receptor from rat brain homogenates
T1 sequence (P35563 whole entry): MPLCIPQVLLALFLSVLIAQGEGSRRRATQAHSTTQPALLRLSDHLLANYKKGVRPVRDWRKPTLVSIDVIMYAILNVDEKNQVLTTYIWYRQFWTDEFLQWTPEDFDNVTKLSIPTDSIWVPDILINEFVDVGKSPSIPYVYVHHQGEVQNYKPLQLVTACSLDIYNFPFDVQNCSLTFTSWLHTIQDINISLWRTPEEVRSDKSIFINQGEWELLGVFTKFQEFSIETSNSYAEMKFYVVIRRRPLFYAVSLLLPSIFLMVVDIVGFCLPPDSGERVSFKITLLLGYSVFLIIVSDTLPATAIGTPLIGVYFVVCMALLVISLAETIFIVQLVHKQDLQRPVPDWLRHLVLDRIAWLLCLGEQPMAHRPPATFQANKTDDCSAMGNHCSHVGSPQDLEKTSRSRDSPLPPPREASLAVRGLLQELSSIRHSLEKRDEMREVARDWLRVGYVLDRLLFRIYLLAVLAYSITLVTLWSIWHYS
T1 sequence (Q9JJ16 whole entry): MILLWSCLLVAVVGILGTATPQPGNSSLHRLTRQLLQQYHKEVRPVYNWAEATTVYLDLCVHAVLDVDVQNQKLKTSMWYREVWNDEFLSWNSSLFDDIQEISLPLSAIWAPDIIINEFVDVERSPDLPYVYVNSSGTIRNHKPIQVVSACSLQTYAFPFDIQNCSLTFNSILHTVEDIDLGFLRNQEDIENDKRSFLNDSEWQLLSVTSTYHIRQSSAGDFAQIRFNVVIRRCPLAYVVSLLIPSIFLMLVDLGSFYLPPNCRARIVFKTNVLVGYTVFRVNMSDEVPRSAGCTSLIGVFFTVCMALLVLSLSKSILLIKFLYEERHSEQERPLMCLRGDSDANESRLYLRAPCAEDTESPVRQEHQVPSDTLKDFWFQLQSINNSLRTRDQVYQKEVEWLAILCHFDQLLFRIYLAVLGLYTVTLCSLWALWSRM

SMILES	Ki [nM]
O=C(N[C@H]1CN2CCC1CC2)c1ccc(Cl)cc1 [listing 1 of 2 here]	1660

target: Acetylcholine receptor; alpha1/beta1/delta/gamma (Homo sapiens, UniProt P02708+P07510+P11230+Q07001); experiment: Antagonistic activity against Nicotinic acetylcholine receptor alpha-1-beta-1-delta-gamma; assay type: functional
Sequence (P02708 whole entry): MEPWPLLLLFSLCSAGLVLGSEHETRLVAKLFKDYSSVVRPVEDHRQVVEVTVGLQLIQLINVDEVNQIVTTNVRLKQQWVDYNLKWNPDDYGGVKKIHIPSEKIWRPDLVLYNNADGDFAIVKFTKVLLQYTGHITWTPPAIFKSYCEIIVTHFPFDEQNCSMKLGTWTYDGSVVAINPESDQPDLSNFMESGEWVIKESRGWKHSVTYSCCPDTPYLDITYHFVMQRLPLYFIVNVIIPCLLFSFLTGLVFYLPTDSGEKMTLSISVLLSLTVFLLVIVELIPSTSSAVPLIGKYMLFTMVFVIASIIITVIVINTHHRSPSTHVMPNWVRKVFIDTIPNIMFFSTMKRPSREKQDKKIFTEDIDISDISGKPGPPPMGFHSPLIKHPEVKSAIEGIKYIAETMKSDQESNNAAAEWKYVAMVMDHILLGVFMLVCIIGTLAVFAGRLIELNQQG
Sequence (P07510 whole entry): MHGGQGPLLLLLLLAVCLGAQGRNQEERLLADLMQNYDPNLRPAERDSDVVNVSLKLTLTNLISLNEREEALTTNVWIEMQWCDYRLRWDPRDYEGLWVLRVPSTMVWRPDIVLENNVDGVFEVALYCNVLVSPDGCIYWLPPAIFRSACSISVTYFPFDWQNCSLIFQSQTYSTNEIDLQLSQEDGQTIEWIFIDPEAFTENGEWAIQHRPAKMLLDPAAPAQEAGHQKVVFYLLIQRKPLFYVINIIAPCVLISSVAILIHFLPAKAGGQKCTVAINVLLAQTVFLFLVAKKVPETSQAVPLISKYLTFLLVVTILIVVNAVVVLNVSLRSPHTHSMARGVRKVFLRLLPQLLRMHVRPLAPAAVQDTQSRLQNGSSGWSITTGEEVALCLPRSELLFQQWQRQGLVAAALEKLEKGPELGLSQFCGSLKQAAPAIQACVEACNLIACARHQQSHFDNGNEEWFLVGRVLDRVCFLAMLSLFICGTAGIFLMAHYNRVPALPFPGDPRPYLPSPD
Sequence (P11230 whole entry): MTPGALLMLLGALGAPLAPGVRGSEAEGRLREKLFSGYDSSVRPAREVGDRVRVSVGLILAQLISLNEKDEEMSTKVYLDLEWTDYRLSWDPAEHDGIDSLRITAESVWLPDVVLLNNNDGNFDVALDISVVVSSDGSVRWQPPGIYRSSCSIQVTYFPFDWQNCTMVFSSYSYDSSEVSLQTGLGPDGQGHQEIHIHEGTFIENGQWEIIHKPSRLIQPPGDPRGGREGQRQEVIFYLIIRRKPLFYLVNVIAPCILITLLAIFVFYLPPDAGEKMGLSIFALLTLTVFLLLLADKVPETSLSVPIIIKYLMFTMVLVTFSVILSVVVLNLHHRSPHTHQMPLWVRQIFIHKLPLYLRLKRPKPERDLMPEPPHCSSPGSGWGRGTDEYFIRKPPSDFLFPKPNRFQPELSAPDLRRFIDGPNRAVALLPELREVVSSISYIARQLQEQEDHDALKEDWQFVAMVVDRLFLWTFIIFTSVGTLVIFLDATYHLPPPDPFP
Sequence (Q07001 whole entry): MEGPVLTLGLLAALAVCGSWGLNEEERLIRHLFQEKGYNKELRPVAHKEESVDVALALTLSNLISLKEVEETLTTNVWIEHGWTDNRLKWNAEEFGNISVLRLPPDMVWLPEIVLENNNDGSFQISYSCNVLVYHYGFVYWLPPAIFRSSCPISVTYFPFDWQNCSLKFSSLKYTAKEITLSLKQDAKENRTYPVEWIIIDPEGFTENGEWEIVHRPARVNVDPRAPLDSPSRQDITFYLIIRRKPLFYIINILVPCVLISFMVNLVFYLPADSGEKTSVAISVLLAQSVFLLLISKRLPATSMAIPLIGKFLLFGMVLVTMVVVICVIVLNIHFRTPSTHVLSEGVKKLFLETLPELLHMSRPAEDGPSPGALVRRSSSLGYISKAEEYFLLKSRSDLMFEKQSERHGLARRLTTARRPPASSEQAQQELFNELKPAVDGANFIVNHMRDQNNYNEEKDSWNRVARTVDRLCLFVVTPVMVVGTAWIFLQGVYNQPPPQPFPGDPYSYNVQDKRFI

SMILES	IC50 [nM]
O=C(N[C@H]1CN2CCC1CC2)c1ccc(Cl)cc1 [listing 1 of 2 here]	≥ 60000

target: not listed separately; experiment: Agonistic activity against Nicotinic acetylcholine receptor alpha-7 - 5-hydroxytryptamine 3 receptor chimera; assay type: functional

SMILES	EC50 [nM]
CC(=O)c1ccc(C(=O)N[C@H]2CN3CCC2CC3)cc1	30000
COc1ccccc1C(=O)N[C@H]1CN2CCC1CC2	> 100000
O=C(N[C@H]1CN2CCC1CC2)c1ccc(OCc2ccccc2)cc1	> 100000
O=C(N[C@H]1CN2CCC1CC2)c1ccc(C(F)(F)F)cc1	> 100000
O=C(N[C@H]1CN2CCC1CC2)c1ccc(Cl)cc1 [PNU-282987]	128
CCCc1ccc(C(=O)N[C@H]2CN3CCC2CC3)cc1	> 100000
CCc1ccc(C(=O)N[C@H]2CN3CCC2CC3)cc1	3760
CSc1ccc(C(=O)N[C@H]2CN3CCC2CC3)cc1	164
O=C(N[C@H]1CN2CCC1CC2)c1ccc(Cl)cc1 [listing 1 of 2 here]	154
Cc1ccc(C(=O)N[C@H]2CN3CCC2CC3)cc1	324
CN(C)c1ccc(C(=O)N[C@H]2CN3CCC2CC3)cc1	30000
O=C(N[C@H]1CN2CCC1CC2)c1ccc(Br)cc1	206
O=C(N[C@H]1CN2CCC1CC2)c1ccc([N+](=O)[O-])cc1	1000
COc1cccc(C(=O)N[C@H]2CN3CCC2CC3)c1	2200
O=C(N[C@H]1CN2CCC1CC2)c1ccccc1F	16700
O=C(N[C@H]1CN2CCC1CC2)c1ccc(F)cc1	506
O=C(N[C@H]1CN2CCC1CC2)c1ccc(I)cc1	494
O=C(N[C@H]1CN2CCC1CC2)c1cccc(F)c1	3300
CC(=O)Nc1ccc(C(=O)N[C@H]2CN3CCC2CC3)cc1	> 100000
CS(=O)(=O)c1ccc(C(=O)N[C@H]2CN3CCC2CC3)cc1	> 100000
COc1ccc(C(=O)N[C@H]2CN3CCC2CC3)cc1	360
O=C(N[C@H]1CN2CCC1CC2)c1ccccc1	1900
CC(C)c1ccc(C(=O)N[C@H]2CN3CCC2CC3)cc1	> 100000
O=C(N[C@H]1CN2CCC1CC2)c1cccc(Cl)c1	1500
O=C(N[C@H]1CN2CCC1CC2)c1ccc(SCc2ccccc2)cc1	100000

target: Neuronal acetylcholine receptor; alpha4/beta2 (Rattus norvegicus) (UniProt P09483+P12390); experiment: Inhibition of [3H]cytisine binding to Nicotinic acetylcholine receptor alpha4-beta2 from rat brain homogenates at 1 uM

SMILES	inhibition [%]
O=C(N[C@H]1CN2CCC1CC2)c1ccc(Cl)cc1 [listing 2 of 2 here]	14

target: T1, Serotonin 3 (5-HT3) receptor; experiment: Functional antagonism of rat 5-hydroxytryptamine 3 receptor in cell-based FLIPR assay

SMILES	IC50 [nM]
O=C(N[C@H]1CN2CCC1CC2)c1ccc(Cl)cc1 [listing 1 of 2 here]	4540

target: not listed separately; experiment: Antagonistic activity against 5-hydroxytryptamine 3 receptor; assay type: functional

SMILES	Ki [nM]
O=C(N[C@H]1CN2CCC1CC2)c1cc(Cl)cc2c1OCC2	1

target: Neuronal acetylcholine receptor subunit alpha-7 (Rattus norvegicus, UniProt Q05941); experiment: Inhibition of methyllycaconitine (MLA) binding to Nicotinic acetylcholine receptor alpha-7 in rat brain homogenates; assay type: tissue-based
Sequence (Q05941 whole entry): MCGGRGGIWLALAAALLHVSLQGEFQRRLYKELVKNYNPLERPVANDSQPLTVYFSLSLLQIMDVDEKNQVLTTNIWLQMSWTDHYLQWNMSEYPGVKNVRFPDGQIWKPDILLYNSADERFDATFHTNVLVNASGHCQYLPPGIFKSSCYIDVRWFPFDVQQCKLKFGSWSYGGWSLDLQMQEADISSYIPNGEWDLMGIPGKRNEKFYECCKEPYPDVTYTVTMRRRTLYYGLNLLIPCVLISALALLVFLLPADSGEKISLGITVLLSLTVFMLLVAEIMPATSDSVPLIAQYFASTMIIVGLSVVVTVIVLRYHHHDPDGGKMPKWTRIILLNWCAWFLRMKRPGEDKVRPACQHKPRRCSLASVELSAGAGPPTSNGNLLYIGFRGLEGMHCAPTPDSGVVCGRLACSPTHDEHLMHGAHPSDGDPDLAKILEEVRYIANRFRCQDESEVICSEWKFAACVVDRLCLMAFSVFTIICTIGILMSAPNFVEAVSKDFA

SMILES	Ki [nM]
O=C(N[C@H]1CN2CCC1CC2)c1ccc(Cl)cc1 [listing 1 of 2 here]	27
